Measurements reported in patent US11918577B2, “Dipeptidyl peptidase-4 inhibitors for topical eye treatment of retinal neurodegenerative diseases” (FUNDACIÓ HOSPITAL UNIVERSITARI VALL D'HEBRON - INSTITUT DE …, priority 2016, dated 2024).

What was measured:
[1] = tested on: db/db mice; details: orally administered, diabetic mice (db/db); cited from earlier work
[2] = tested on: C. Elegans; details: high glucose levels, no GLP-1R expression; cited from earlier work
[3] = administered in the form of eye drops; cited from earlier work
[4] = tested on: db/db mouse; assay: Glial activation (GFAP staining score) in retina of db/db mice, eye drops; type: in vivo; details: for GFAP score of the treated mice / reactive gliosis: eye drops for two weeks; for GFAP score of the treated mice: all cases, scale 1-5; for reactive gliosis: vs vehicle
From the text: (§1) It has been reported that db/db mice reproduce the features of the neurodegenerative process that occurs in the human diabetic eye. Therefore, it is an appropriate model for testing neuroprotective drugs (according to Bogdanov et al., “The db/db mouse: a useful model for the study of diabetic retinal neurodegeneration”, PLoS One—2014, vol. no. 9(5):e97302). A total of 20 male db/db (BKS.Cg-+Lepr db/+Lepr db/OlaHsd) mice aged 10 weeks were purchased from Harlan Laboratories, Inc. In addition, 10 non-diabetic (db/+) mice matched by age were used as control group.
(§2) This study was approved by the Animal Care and Use Committee of VHIR (Vali d′Hebron Research Institute). All the experiments were performed in accordance with the tenets of the European Community (86/609/CEE) and ARVO (Association for Research in Vision and Ophthalmology).
Glial activation was evaluated by Laser Scanning Confocal microscopy using specific antibodies against GFAP (Glial fibrillar acidic protein). Sections were fixed in acid methanol (−20° C.) for 2 min, followed by three washes with PBS, 5 min each. Sections were permeabilized with TBS-Triton X-100 0.025% and were incubated in blocker (1% BSA, and 10% goat serum in PBS) for 2 hours at room temperature. Sections were then incubated with rabbit anti-GFAP (Abcam Ltd, Cambridge, U.K.) (1:500 dilution prepared in blocking solution) overnight at 4° C. in a humid atmosphere. After three washes in PBS, 5 min each, the sections were incubated with secondary antibody Alexa 488 goat-anti-rabbit (Invitrogen) (1:200 dilution prepared in blocking solution). The sections were washed three times in PBS, counterstained with Hoestch and mounted with Mounting Medium Fluorescence (Prolong, Invitrogen) and mounted with a coverslip. Comparative digital images from samples were recorded with a Fluoview FV 1000 Laser Scanning Confocal Microscope Olympus using identical brightness and contrast settings.
To evaluate the degree of glial activation it was used a scoring system based on the extent of GFAP staining previously described (Anderson et al., “Glial and endothelial blood-retinal barrier responses to amyloid-beta in the neural retina of the rat”, Clin Ophthalmol—2008, vol. no. 2, pp.:801-816). This scoring system was as follows: Müller cell endfeet region/GCL only (score 1); Müller cell endfeet region/GCL plus a few proximal processes (score 2); Müller cell endfeet plus many processes, but not extending to ONL (score 3); Müller cell endfeet plus processes throughout with some in the ONL (score 4); Müller cell endfeet plus lots of dark processes from GCL to outer margin of ONL (score 5).
The scoring system was as follows: Müller cell endfeet region/GCL only (score 1); Müller cell endfeet region/GCL plus a few proximal processes (score 2); Müller cell endfeet plus many processes, but not extending to ONL (score 3); Müller cell endfeet plus processes throughout with some in the ONL (score 4); Müller cell endfeet plus lots of dark processes from GCL to outer margin of ONL (score 5). n=10 mice per group (5 retinal sections per mice).
(§3) The design and methodology were the same than used in Example 2.

[5] = tested on: db/db mouse; assay: Retinal apoptosis (TUNEL) in db/db mice, eye drops; type: in vivo; details: eye drops for two weeks, ONL, INL, GCL, vs vehicle
From the text: as §1, §2
The TUNEL (Terminal Transferase dUTP Nick-End Labeling) staining was carried out using the DeadEnd Fluorometric TUNEL System kit (PROMEGA, Madison, WI, USA). Cryosections of retina were permeabilised by incubation for 2 min on ice with 0.1% Triton X-100 in 0.1% sodium citrate, freshly prepared. The secondary antibody was Alexa 488 goat-anti-rabbit (Invitrogen, San Diego CA, USA). For evaluation by Laser Scanning Confocal microscopy the excitation wavelength was 488 nm and detection in the range of 515-565 nm (green) was used. […]

[6] = tested on: db/db mouse; assay: Retinal glutamate quantification (UPLC) in db/db mice, eye drops; type: in vivo; details: p<0.05
From the text: as §1, §2
Quantification of glutamate was performed by reverse phase ultra-performance liquid chromatography (UPLC) (Acquity-UPLC, Waters) as aminoquinoline derivatives (AccQ-Tag chemistry, MassTrak AAA method and instruments, Waters, Milford, MA).
as §3

[7] = tested on: GLAST (glutamate-aspartate transporter); assay: GLAST immunofluorescence in retina of db/db mice, eye drops; type: in vivo, mouse
From the text: as §1, §2
GLAST (glutamate-aspartate transporter), the main glutamate transporter, was evaluated by fluorescence microscopy using specific antibodies. GLAST was evaluated by fluorescence microscopy using specific antibodies [rabbit anti-GLAST (EAAT1) (1:100, Abcam ab416, Cambridge, UK).
as §3

[8] = tested on: db/db mouse; assay: Blood-retinal barrier: albumin leakage (Evans blue, albumin immunofluorescence) in db/db mice, eye drops; type: in vivo; details: for albumin leakage (extravasation of albumin): vs vehicle
From the text: as §1, §2
(§4) In the lower panel FIG. 6(B) the quantification of albumin immunofluorescence of digital images with Fluoview FV 1000 Laser Scanning Microscope is shown. Immunohistochemistry images of Fluoview FV 1000 Laser Scanning Microscope from which quantification of albumina (in red) was done are not shown. The three type of samples tested were: D-Sham, D-SAXAGLIPTIN and C (db/+). Results are the mean±SD. *p <0.05 between db/db treated with vehicle (D-Sham) and the other groups.
as §3
as §4, with “9(B)” for “6(B)”, “D-Sitagliptin” for “D-SAXAGLIPTIN”, “*p<0.05” for “*p <0.05”

[9] = tested on: GLP-1 and its main downstream messenger cAMP; assay: Intraretinal content of GLP-1 and cAMP in db/db mice, eye drops (data not shown); type: in vivo, mouse
From the text: Without being bound to any theory, inventors consider that, in fact, the DPP-4 inhibitors themselves activate unrelated downstream GLP-1R pathways that might be involved in neuroprotection.

[10] = tested on: db/db mouse; assay: Full field electroretinography (ERG) in db/db mice, eye drops; type: in vivo
Procedure: Full field electroretinography (ERG) recordings were measured using the Ganzfeld ERG platform (Phoenix Research Laboratories, Pleasanton, CA) following ISCEV (International Society for Clinical Electrophysiology of Vision) recommendations (according to Marmor et al., “Standard for clinical electroretinography.”, International Society for Clinical Electrophysiology of Vision (2004), Doc Ophthalmol—2004; vol. 108, pp.:107-114).

SMILES | GFAP score of the treated mice [4] | reactive gliosis [4] | apoptosis (TUNEL positive cells) in retinal layers [5] | retinal glutamate concentration vs diabetic mice treated with vehicle [6] | downregulation of GLAST induced by diabetes [7] | albumin leakage (extravasation of albumin) [8] | intraretinal content of GLP-1 [9] | intraretinal content of cAMP [9] | further results
N[C@@H](CC(=O)N1CCc2c(nc(C(F)(F)F)nc2C(F)(F)F)C1)CN1CC(F)(F)CCC1=O [Gemigliptin, (3S)-3-amino-4-(5,5-difluoro-2-oxopiperidino)-1-[2,4-di(trifluoromethyl)-5,6,7,8-tetrahydropyrido[3,4-d]pyrimidin-7-yl]butan-1-one] | – | – | – | – | – | – | – | – | retinal pericyte apoptosis [1]: ameliorate; vascular leakage [1]: ameliorate
CC#CCn1c(N2CCC[C@@H](N)C2)nc2c1c(=O)n(Cc1nc(C)c3ccccc3n1)c(=O)n2C [Linagliptin, 8-[(3R)-3-aminopiperidin-1-yl]-7-(but-2-yn-1-yl)-3-methyl-1-[(4-methylquinazolin-2-yl)methyl]-3,7-dihydro-1H-purine-2,6-dione] | – | – | – | – | – | – | – | – | neuroprotective effect [2]: neuroprotective effect
Cc1cc(-c2cc(O)ccc2Cl)cc2nnc(Nc3ccc(OCCN4CCCC4)cc3)nc12 [TG100572, 4-chloro-3-(5-methyl-3-{[4-(2-pyrrolidin-1-ylethoxy)phenyl]amino}-1,2,4-benzotriazin-7-yl)phenol] | – | – | – | – | – | – | – | – | reaching the target in the retina [3]: able to reach the target in the retina
N#C[C@@H]1C[C@@H]2C[C@@H]2N1C(=O)[C@@H](N)C12CC3CC(CC(O)(C3)C1)C2 [Saxagliptin, (1S,3S,5S)-2-[(2S)-2-amino-2-(3-hydroxy-1-adamantyl)acetyl]-2-azabicyclo[3.1.0]hexane-3-carbonitrile] | < 3 | significant decrease | significant prevention of apoptosis in all retinal layers | significantly lower | prevented | prevented albumin leakage | significant increase | significant increase | % positive GFAP labeling, score 1 ([4]; eye drops twice daily for 14 days, score 1: Müller cell endfeet region/GCL only): 95.00%; % positive GFAP labeling, score 2 ([4]; eye drops twice daily for 14 days, score 2: endfeet region/GCL plus a few proximal processes): 5.00%; % positive GFAP labeling, score 3 ([4]; eye drops twice daily for 14 days, score 3: endfeet plus many processes, not extending to ONL): 0.00%; % positive GFAP labeling, score 4 ([4]; eye drops twice daily for 14 days, score 4: endfeet plus processes throughout with some in the ONL): 0.00%; % positive GFAP labeling, score 5 ([4]; eye drops twice daily for 14 days, score 5: lots of dark processes from GCL to outer margin of ONL): 0.00%
N[C@@H](CC(=O)N1CCn2c(nnc2C(F)(F)F)C1)Cc1cc(F)c(F)cc1F [Sitagliptin, (R)-4-oxo-4-[3-(trifluoromethyl)-5,6-dihydro[1,2,4]triazolo[4,3-a]pyrazin-7(8H)-yl]-1-(2,4,5-trifluorophenyl)butan-2-amine] | ≤ 3 | significant decrease | significant prevention of apoptosis in all retinal layers | prevented glutamate accumulation | abrogating the downregulation of GLAST | prevented albumin leakage | significant increase | significant increase | GFAP score distribution (Table 2), score 1 ([4]; sitagliptin eye drops for two weeks, score 1): 85.00; GFAP score distribution (Table 2), score 2 ([4]; sitagliptin eye drops for two weeks, score 2): 10.00; GFAP score distribution (Table 2), score 3 ([4]; sitagliptin eye drops for two weeks, score 3): 5.00; GFAP score distribution (Table 2), score 4 ([4]; sitagliptin eye drops for two weeks, score 4): 0.00; GFAP score distribution (Table 2), score 5 ([4]; sitagliptin eye drops for two weeks, score 5): 0.00; sealing function of the BRB [8]: preserved the sealing function of the BRB; functional abnormalities measured by ERG [10]: prevented functional abnormalities
